The results in this text go back to patent publication US12503471B2, “Triazatricycle compounds for the treatment of autoimmune disease” (Hoffmann-La Roche Inc., priority 2019, dated 2025).

The test concerns the target T1, human TLR9 (Homo sapiens, UniProt Q9NR96).
T1 construct: host or cells: HEK293 (HEK-Blue hTLR9)
T1 sequence (Q9NR96 26-1032): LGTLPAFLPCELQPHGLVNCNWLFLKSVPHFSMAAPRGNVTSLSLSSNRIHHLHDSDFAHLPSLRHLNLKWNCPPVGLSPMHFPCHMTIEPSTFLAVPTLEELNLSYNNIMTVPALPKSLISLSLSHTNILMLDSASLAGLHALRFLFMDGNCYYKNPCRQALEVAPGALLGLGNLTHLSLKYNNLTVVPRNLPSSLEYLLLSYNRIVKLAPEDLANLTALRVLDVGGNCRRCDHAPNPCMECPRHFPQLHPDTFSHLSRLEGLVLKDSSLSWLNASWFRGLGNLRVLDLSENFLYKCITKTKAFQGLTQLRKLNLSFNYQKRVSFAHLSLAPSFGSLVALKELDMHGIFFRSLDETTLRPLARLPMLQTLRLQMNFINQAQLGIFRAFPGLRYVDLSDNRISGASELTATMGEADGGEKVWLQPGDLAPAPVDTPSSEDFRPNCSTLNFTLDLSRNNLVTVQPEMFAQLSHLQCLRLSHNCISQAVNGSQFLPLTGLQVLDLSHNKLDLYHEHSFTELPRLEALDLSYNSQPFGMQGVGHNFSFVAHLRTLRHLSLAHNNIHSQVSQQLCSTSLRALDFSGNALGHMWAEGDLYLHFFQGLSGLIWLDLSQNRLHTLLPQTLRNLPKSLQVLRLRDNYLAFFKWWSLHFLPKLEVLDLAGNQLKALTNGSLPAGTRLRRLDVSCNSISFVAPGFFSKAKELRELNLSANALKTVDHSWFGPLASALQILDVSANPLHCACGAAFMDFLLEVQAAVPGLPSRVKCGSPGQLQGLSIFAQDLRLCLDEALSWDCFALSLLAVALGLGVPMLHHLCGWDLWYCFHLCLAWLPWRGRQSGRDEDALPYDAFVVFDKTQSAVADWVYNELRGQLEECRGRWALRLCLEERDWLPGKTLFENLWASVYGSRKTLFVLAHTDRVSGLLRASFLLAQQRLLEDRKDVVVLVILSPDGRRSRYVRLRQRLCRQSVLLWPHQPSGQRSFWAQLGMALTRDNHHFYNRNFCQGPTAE
Nature of the test: HEK293-Blue-hTLR-9 cells assay. Type of test: cell-based. Particulars: HEK293-Blue-hTLR9 cells, ODN2006 stimulation, 20 hrs, SEAP reporter; read-out: HEK/hTLR9 IC50. The text has this:
HEK293-Blue-hTLR-9 Cells Assay:
A stable HEK293-Blue-hTLR-9 cell line was purchased from InvivoGen (Cat. #: hkb-htlr9, San Diego, Calif., USA). These cells were originally designed for studying the stimulation of human TLR9 by monitoring the activation of NF-κB. A SEAP (secreted embryonic alkaline phosphatase) reporter gene was placed under the control of the IFN-β minimal promoter fused to five NF-κB and AP-1-binding sites. The SEAP was induced by activating NF-κB and AP-1 via stimulating HEK-Blue hTLR9 cells with TLR9 ligands. Therefore the reporter expression was declined by TLR9 antagonist under the stimulation of a ligand, such as ODN2006 (Cat. #: tlrl-2006-1, Invivogen, San Diego, Calif., USA), for incubation of 20 hrs. The cell culture supernatant SEAP reporter activity was determined using QUANTI-Blue^TM kit (Cat. #: rep-qbl, Invivogen, San Diego, Calif., USA) at a wavelength of 640 nm, a detection medium that turns purple or blue in the presence of alkaline phosphatase.
HEK293-Blue-hTLR9 cells were incubated at a density of 250,000˜450,000 cells/mL in a volume of 170 μL in a 96-well plate in Dulbecco's Modified Eagle's medium (DMEM) containing 4.5 g/L glucose, 50 U/mL penicillin, […] streptomycin, […] Normocin, 2 mM L-glutamine, 10% (v/v) heat-inactivated fetal bovine serum with addition of 20 μL test compound in a serial dilution in the presence of final DMSO at 1% and 10 μL of 20 uM ODN2006 in above DMEM, perform incubation under 37° C. in a CO2 incubator for 20 hrs. Then 20 μL of the supernatant from each well was incubated with 180 μL Quanti-blue substrate solution at 37° C. for 2 h and the absorbance was read at 620-655 nm using a spectrophotometer. The signaling pathway that TLR9 activation leads to downstream NF-κB activation has been widely accepted, and therefore similar reporter assay was modified for evaluating TLR9 antagonist.
For the molecule `[2H]c1ccc2c(N3C[C@@H](C)N4Cc5nc(O[C@H]6CCNC6)ccc5[C@H]4C3)ccc(C#N)c2n1` [Example 25, 2-Deuterio-5-[(2S,6R)-6-methyl-11-[(3S)-pyrrolidin-3-yl]oxy-4,7,10-triazatricyclo[7.4.0.02,7]trideca-1(9),10,12-trien-4-yl]quinoline-8-carbonitrile], the IC50 was determined as 274 nM. The figure for `[2H]c1ccc2c(N3C[C@@H](C)N4Cc5nc(N6CC[C@@H](OC)[C@H](N)C6)ccc5[C@H]4C3)ccc(C#N)c2n1` [Example 15, 5-[(2S,6R)-11-[(3R,4R)-3-amino-4-methoxy-1-piperidyl]-6-methyl-4,7,10-triazatricyclo[7.4.0.02,7]trideca-1(9),10,12-trien-4-yl]-2-deuterio-quinoline-8-carbonitrile] is 212 nM; for `[2H]c1ccc2c(N3C[C@@H](C)N4Cc5nc(N6CC[C@H]7CNC[C@H]76)ccc5[C@H]4C3)ccc(C#N)c2n1` [Example 10, 5-[(2S,6R)-11-[(3aS,6aS)-3,3a,4,5,6,6a-hexahydro-2H-pyrrolo[2,3-c]pyrrol-1-yl]-6-methyl-4,7,10-triazatricyclo[7.4.0.02,7]trideca-1(9),10,12-trien-4-yl]-2-deuterio-quinoline-8-carbonitrile] it is 186 nM; for `[2H]c1ccc2c(N3C[C@@H](C)N4Cc5nc(N6CC[C@@H](N)[C@H](OC)C6)ccc5[C@H]4C3)ccc(C#N)c2n1` [Example 11, 5-[(2S,6R)-11-[(3R,4R)-4-amino-3-methoxy-1-piperidyl]-6-methyl-4,7,10-triazatricyclo[7.4.0.02,7]trideca-1(9),10,12-trien-4-yl]-2-deuterio-quinoline-8-carbonitrile] it is 202 nM. The figure for `[2H]c1ccc2c(N3C[C@@H](C)N4Cc5nc(N6CC[C@H](OC)[C@@H](N)C6)ccc5[C@H]4C3)ccc(C#N)c2n1` [Example 14, 5-[(2S,6R)-11-[(3S,4S)-3-amino-4-methoxy-1-piperidyl]-6-methyl-4,7,10-triazatricyclo[7.4.0.02,7]trideca-1(9),10,12-trien-4-yl]-2-deuterio-quinoline-8-carbonitrile] is 316 nM.
